Measurements published in patent US12576048B2, “Anti-cancer activity of adamantane derivatives” (The Regents of the University of California, priority 2018, dated 2026).

What was measured:
[1] = tested on: CAL-33 squamous cell carcinoma cell line; assay: MTT proliferation assay, CAL-33; assay type: cell-based, human; details: rimantadine alone; FIG. 13
Description: (§1) FIG. 13 has plots showing the effect of rimantadine on human HNSCC lines as labeled. BrdU cell cycle analysis (upper) and MTT proliferation assay (lower).
(§2) Cell cycle progression was analyzed on the basis of BrdU incorporation following […] cell staining with BrdU-APC and 7-AAD using BD Pharmingen BrdU Flow Kit. (BD, Franklin Lakes, NJ) according to the manufacture's protocol. Cells were analyzed using flow cytometry. Cell proliferation was assessed by using MTT [3-(4,5-dimethylthiazol-2-yl)-2,5-diphenyltetrazolium bromide]. First, cells were seeded in 96-well plate and cultured for 2-3 days. Next, culture media was replaced with fresh media containing 0.5 mg/ml of MTT (Sigma) and the plates were incubated for 4 hours at 37° C. Then, purple formazan crystals were dissolved in lysis buffer (4 mM HCl and 0.1% NP-40 in isopropanol) and the absorbance was recorded on a TECAN infinite M200 microplate reader (Tecan, Männedorf, Switzerland) at a wavelength of 570 nm with absorbance at 650 nm as reference.

[2] = tested on: MOSCC3 squamous cell carcinoma; assay: MTT proliferation assay, MOSCC3 (Example 2); assay type: cell-based, murine; details: 48 hours; FIG. 16C
[3] = tested on: SCC-47 squamous cell carcinoma cell line; assay: BrdU cell cycle analysis, SCC-47; assay type: cell-based, human; details: rimantadine alone; FIG. 13
Description: as §1, §2

Stathmin = Stathmin mRNA expression by RT-qPCR; assay type: cell-based; details: 24 hours
Description: FIGS. 11A and 11B are plots showing Stathmin mRNA expression, which was analyzed 24 hours following treatment with rimantadine in AT-84-E7 cells and B16-OVA cells, respectively.
(§3) Total RNA were extracted using TRIzol Reagent (Invitrogen) and reverse transcribed with qScript cDNA Synthesis Kit (Quanta BioSciences, Beverly, MA) according to the manufacturer's instructions. Quantitative PCR analysis were conducted by using KAPA SYBR […] FAST (KAPA Biosystems, Wilmington, MA) on the 7900HT Fast Real-Time PCR System (Applied Biosystems, Foster City, CA).

AT84-E7/E5 tumor cells = assay: Tumor volume in mice inoculated with AT84-E7/E5 tumor cells; assay type: in vivo; details: 10 mg/kg IP once daily, 7 injections starting on day 8; FIG. 1A
Description: (§4) FIGS. 1A-1E are plots showing the effects of rimantadine or PEGylated rimantidine on tumor volume in different cancer models.
(§5) Mice were injected subcutaneously with 1.0 to 5.0×10^5 AT-84-E7, 1.5×10^5 B16-OVA, or 5.0×10^5 4T1 cells resuspended in 100 μl of PBS in the right flank. For orthotopic models, 1.0×10^5 AT-84-E7 or 1.0×10^6 4MOSC1 in 30 μl of PBS were injected into tongue. Tumor diameter was measured every 2 to 3 days with an electronic caliper and reported as volume using the formula; tumor volume (mm3)=(length×width2)/2. Once tumors become palpable, mice were treated with 200 μg of anti-PD-L1 antibody (BioXcell, West Lebanon, NH) via IP injection every 3 days for a total of three or four injections per mouse, or mice were treated with 10 mg/kg body weight of rimantadine (Sigma, St. Louis, MO) via IP injection daily for 7 days. For adoptive transfer experiments, first, single-cell suspension of spleen from OT-1 mice were cultured in media containing 10 ng/ml OVA SIINFEKL peptide (InvivoGen, San Diego, CA) and 2 ng/ml recombinant IL-2 (PeproTech, Rocky Hill, NJ) […], and then 4.0×10^6 cells were intravenously injected into B16-OVA-bearing mice.

RAW264.7 cell line = details: 48 hours after treatment
Description: FIGS. 7A and 7B are plots showing cell surface expression of MHC I (H-2Kd) and MHC II (I-A/I-E), respectively, on rimantadine-treated RAW264.7 48 hours after treatment. Data are shown as mean±S.E.M. Statistics were done using an unpaired t-test.
After obtaining single-cell suspensions, each sample was incubated with an Fc blocking reagent (anti-CD16/32 antibody; BioLegend, San Diego, CA). Following Fc blockade, cells were stained with fluorescent-labeled antibodies [BioLegend, BD Bioscience (San Jose, CA), or eBiosciences (Thermo Fisher Scientific, Waltham, MA)]. LIVE/DEAD Fixable Cell Staining Kit (Invitrogen) was used for viability staining. For intracellular staining, cells were processed with Foxp3/Transcription Factor Fixation/Permeabilization Concentrate and Diluent (Invitrogen). Cells were analyzed using a BD FACS Aria II or LSR II flow cytometer (BD). Data was analyzed on FlowJo (FlowJo, LLC, Ashland, OR). For each antibody, the following clones were used: CD45.2 (104), CD3e (145-2C11), CD4 (RM4-5), CD8a (5H10), CD25 (3C7, PC61), CD44 (IM7), CD62L (MEL-14), IFN-γ (XMG1.2), Foxp3 (MF23), H-2Kb (AF6-88.5), H-2Kk (36-7-5), H-2Kd (SF1-1.1), H-2Kb/[sequence] (eBio25-D1.16), I-A/I-E (2G9), CD49b (DX5), CD11b (M1/70), FLAG (L5), CD31 (MEC13.3), NK-T/NK Cell Antigen (U5A2-13), CD102 (3C4 (MIC2/4)), CD62P (RMP-1), CD105 (MJ7/18), CD106 (429 (MVCAM.A)), and CD162 (2PH1).

[4] = tested on: CAL-27 squamous cell carcinoma cell line; assay: BrdU cell cycle analysis, CAL-27; assay type: cell-based, human; details: rimantadine alone; FIG. 13
Description: as §1, §2

[5] = tested on: AT-84-E7 tumors which didn't express E5; assay: Tumor volume in mice inoculated with AT-84-E7 cells not expressing E5 (empty vector); assay type: in vivo; details: rimantadine for one week; FIG. 2A vs 2B
Description: FIGS. 2A and 2B are plots showing the effects of rimantadine on tumor.
as §5

T cells = assay: T-cell proliferation assay using CFSE-labeled T-cells; assay type: cell-based; details: FIGS. 10A and 10B
Source text: FIGS. 10A and 10B are plots showing T-cell proliferation assay using CFSE-labeled T-cells simulated to proliferate in the presence or absence of rimantadine.

[6] = tested on: B16-OVA cells co-cultured with B3Z cells; assay: B3Z activation assay; assay type: cell-based; details: 100 μM rimantadine 24 hours, then 24 hours co-culture; FIG. 5
Description: FIG. 5 is a plot showing B3Z activation after rimantadine treatment (48 hours).
B16-OVA cells were seeded into 96-well plate and treated with 100 μM rimantadine for 24 hours, prior to addition of B3Z cells. After 24 hours of co-culture, medium was removed and 100 μl of lysis buffer [0.155 mM chlorophenol red β-D-galactopyranoside (CPRG) (Roche), 0.125% Nonidet P-40 Alternative (EMD-Calbiochem), and 9 mM MgCl2 (Sigma) in PBS] was added. After incubation for 4 hours at 37° C., the absorbance at 570 nm was determined on a TECAN infinite M200 microplate reader.

B16-OVA = assay: BrdU cell cycle analysis, B16-OVA; assay type: cell-based, murine; details: 24 hours; FIG. 8
Description: (§6) FIG. 8 has plots showing the BrdU cell cycle analyzed for 24 hours following treatment with rimantadine,
as §2

[7] = tested on: CAL-27 squamous cell carcinoma cell line; assay: MTT proliferation assay, CAL-27; assay type: cell-based, human
[8] = tested on: SCC-47 squamous cell carcinoma cell line; assay: MTT proliferation assay, SCC-47; assay type: cell-based, human; details: rimantadine alone; FIG. 13
Description: as §1, §2

B16-OVA tumor cells = assay: Tumor volume in mice inoculated with B16-OVA tumor cells; assay type: in vivo; details: 10 mg/kg IP once daily, 7 injections starting on day 10; FIG. 1B, 1E
Description: as §4, §5

[9] = tested on: B16-OVA melanoma tumor line; assay: MHC Class I expression in B16-OVA by flow cytometry (Example 2); assay type: cell-based, murine; details: 24 hours at indicated concentrations; FIG. 15
[10] = tested on: multiple cell lines (AT-84-E7, B16-OVA, 4T1, B16, MC38); details: rimantadine 100 μM, 48 hours or 24 hours; FIGS. 3A-3E, 4A-D
Description: FIGS. 3A-3E are plots showing MHC I expression or antigen-presentation (H-2Kb/[sequence]) as analyzed by flow cytometry after rimantadine treatment (100 μM, 48 hours). FIG. 3A is a plot showing MHC I expression for the AT-84-E7 model. FIG. 3B is a plot showing MHC I expression for the B16-OVA model. FIG. 3C is a plot showing antigen-presentation (H-2Kb/[sequence]) for the B16-OVA model. FIG. 3D is a plot showing MHC I expression for the 4T1 model.
FIGS. 4A-4D are plots showing MHC expression in tumor cells. FIGS. 4A and 4B show MHC I expression analyzed by flow cytometry 48 hours after rimantadine treatment for B16 and MC38 cells, respectively. FIGS. 4C and 4D are plots showing expression of MHC I and antigen presentation (H-2Kb/[sequence]), respectively, 24 hours after rimantadine treatment in B16-OVA cells.
After obtaining single-cell suspensions, each sample was incubated with an Fc blocking reagent (anti-CD16/32 antibody; BioLegend, San Diego, CA). Following Fc blockade, cells were stained with fluorescent-labeled antibodies [BioLegend, BD Bioscience (San Jose, CA), or eBiosciences (Thermo Fisher Scientific, Waltham, MA)]. LIVE/DEAD Fixable Cell Staining Kit (Invitrogen) was used for viability staining. […] Cells were analyzed using a BD FACS Aria II or LSR II flow cytometer (BD). Data was analyzed on FlowJo (FlowJo, LLC, Ashland, OR). […]

B16-OVA melanoma = assay: MTT proliferation assay, B16-OVA (Example 2); assay type: cell-based, murine; details: 48 hours; FIG. 16A
4T1 tumor cells = assay: Tumor volume in mice inoculated with 4T1 tumor cells; assay type: in vivo; details: 10 mg/kg IP once daily, 7 injections starting on day 6; FIG. 1C
Description: as §4, §5

4MOSC1 tumor cells = assay: Tumor volume in mice inoculated with 4MOSC1 tumor cells (orthotopic HNSCC model); assay type: in vivo; details: 10 mg/kg IP once daily, 7 injections once tumors palpable; FIG. 1D
Description: as §4, §5

[11] = tested on: AT-84 E7 squamous cell carcinoma; assay: MTT proliferation assay, AT-84-E7 (Example 2); assay type: cell-based, murine; details: 48 hours; FIG. 16B
[12] = tested on: murine and human cell lines engineered to express HPV16 E5; assay type: cell-based; details: 24 hours; FIG. 14
[13] = tested on: CAL-33 squamous cell carcinoma cell line; assay: BrdU cell cycle analysis, CAL-33; assay type: cell-based, human; details: rimantadine alone; FIG. 13
Description: as §1, §2

[14] = tested on: AT-84-E7 and B16-OVA models; assay: Cell proliferation assay (MTT), FIG. 9; assay type: cell-based; details: 48 hours
Description: FIG. 9 has plots showing the cell proliferation assay (MTT), which was analyzed 48 hours following treatment with rimantadine.
as §2

AT-84-E7 = assay: BrdU cell cycle analysis, AT-84-E7; assay type: cell-based, murine; details: 24 hours; FIG. 8
Description: as §6, §2

Tau = Tau mRNA expression by RT-qPCR; assay type: cell-based; details: 24 hours; FIGS. 12A and B
Description: FIGS. 12A and 12B are plots showing Tau mRNA expression, which was analyzed 24 hours following treatment with rimantadine.
as §3

With `CC(N)C12CC3CC(CC(C3)C1)C2` (centres unmarked) [rimantadine] the “proliferation (MTT)” value [1] was “decreased proliferation”, the “proliferation (MTT)” value [2] was “inhibit proliferation” and the “cell cycle arrest (BrdU)” value [3] was “Significant cell cycle arrest”. The “Stathmin mRNA expression” value (Stathmin; AT-84-E7 cells, FIG. 11A) was “significant decreases”, the “Stathmin mRNA expression” value (Stathmin; B16-OVA cells, FIG. 11B) was “significant decreases” and the “tumor size compared to control groups” value (AT84-E7/E5 tumor cells) was “statistically significant decreases in tumor size”. The “MHC class I surface expression” value (RAW264.7 cell line; H-2Kd, FIG. 7A) was “significant increases”, the “MHC class II surface expression” value (RAW264.7 cell line; I-A/I-E, FIG. 7B) was “significant increases” and the “cell cycle arrest (BrdU)” value [4] was “Significant cell cycle arrest”. For the same compound, the “anti-tumor effect (tumor volume) relative to E5-expressing tumors” value [5] was “decreased”, the “proliferation of T cells” value (T cells) was “no significant effect” and the “increase in recognition of model tumor antigen by B3Z cells” value [6] was 3 fold. For the same compound, the “GO/G1 cell cycle arrest” value (B16-OVA) was “significant increases”, the S phase (B16-OVA) was “significant decreases” and the “proliferation (MTT)” value ([7]; 48 hours, FIG. 17A) was “inhibited proliferation”. The “proliferation (MTT)” value ([7]; 72 hours, FIG. 17B) was “inhibited proliferation”, the “proliferation (MTT)” value ([7]; rimantadine alone, FIG. 13) was “decreased proliferation” and the “proliferation (MTT)” value [8] was “decreased proliferation”. The “tumor sizes compared to control groups” value (B16-OVA tumor cells) was “statistically significant decreases in tumor sizes”, the “MHC Class I Expression” value [9] was “upregulated” and the “surface expression of MHC” value [10] was “Significant increases”. The “proliferation (MTT)” value (B16-OVA melanoma) was “inhibit proliferation”, the “tumor sizes compared to control groups” value (4T1 tumor cells) was “statistically significant decreases in tumor sizes” and the “anti-tumor activity (tumor volume)” value (4MOSC1 tumor cells) was “significant anti-tumor activity”. The “proliferation (MTT)” value [11] was “inhibit proliferation”, the “cell cycle arrest (BrdU)” value [12] was “induced cell cycle arrest” and the “cell cycle arrest (BrdU)” value [13] was “Significant cell cycle arrest”. The “cell proliferation (MTT)” value [14] was “Suppression of cell proliferation”, the “GO/G1 cell cycle arrest” value (AT-84-E7) was “significant increases” and the S phase (AT-84-E7) was “significant decreases”. The “Tau mRNA expression” value (Tau) was “Decreases” and the “cell surface expression of MHC I” value (E5-positive AT-84-E7) was “restored”.

For `CC12CC3CC(C)(C1)CC(N)(C3)C2` [memantine], the “proliferation (MTT)” value [2] was “inhibit proliferation”, the “proliferation (MTT)” value ([7]; 48 hours, FIG. 17A) was “inhibited proliferation” and the “proliferation (MTT)” value ([7]; 72 hours, FIG. 17B) was “inhibited proliferation”. The “MHC Class I Expression” value [9] was “upregulated”, the “proliferation (MTT)” value (B16-OVA melanoma) was “inhibit proliferation” and the “proliferation (MTT)” value [11] was “inhibit proliferation”.
